The record followed here is EPA's ToxValDB 9.5 (doi:10.2903/j.efsa.2010.1523).

In one series the test system is Apis mellifera. The settings on record: acute; duration: 48 hours; dermal; mortality.
In another series the test system is Canidae. The settings on record: chronic; duration: 1 years; oral; Dog Other; hematological.
Another series concerns Colinus virginianus. The conditions noted are these: acute, oral, mortality.
The test system of a further series is Coturnix japonica. The settings on record: reproduction developmental.
The subject of another series is Daphnia magna. The settings on record: chronic/long-term; duration: 21 days; reproduction.
The next series concerns Mus musculus. The settings on record: acute; oral; mortality.
The subject of another series is Rattus norvegicus. The conditions noted are these: acute; oral; mortality.
A further series relates to Tagia sp. The settings on record: acute; duration: 14 days; mortality.
Another series deals with Aphidius rhopalosiphi. Briefly: LR50; higher = less toxic. The conditions noted are these: not reported; mortality.

Values after ≈ are worked out from the molar mass of the structure shown.

In general, NOAEL refers to the highest dose or exposure tested at which no adverse effect was seen. In the case of `Cc1cnc2c(C(=O)O)c(Cl)ccc2c1` [Quinmerac], the LD50 was more than 100 µg/piece with Apis mellifera, more than 2000 mg/kg-day with Colinus virginianus, more than 5000 mg/kg-day in the series with Mus musculus and more than 5000 mg/kg-day in the series on Rattus norvegicus. Also, the NOAEL with Canidae came to 7.9 mg/kg-day; with Oryctolagus sp. (developmental, development), 30 mg/kg-day. For the same compound, the LC50 in the series with Colinus virginianus (diet) is more than 933 mg/kg-day; with Oncorhynchus mykiss (acute, duration: 96 hours, mortality), 86.8 µg/mL (≈ 392 µM); in the series on Tagia sp., more than 1000 mg/kg. The NOEC was 173 mg/kg-day in the series on Coturnix japonica; 100 mg/L with Daphnia magna; 3.16 mg/L with Oncorhynchus mykiss (chronic/long-term, duration: 28 days, growth). For the same compound, the NOEL in the series with Oryctolagus sp. (chronic) stood at 100 mg/kg-day. The same compound registered an LR50 with Aphidius rhopalosiphi of more than 500 g/ha.
